Test results reported in patent publication US20190008810A1, “METHOD FOR PREVENTION, TREATMENT AND ALLEVIATION OF INFECTIOUS DISEASES AND DISORDERS” (REPLICON HEALTH OY, priority 2016, published 2019).

Assays:
[1] = test system: acute bowels inflammation caused by diverticulitis; experiment: Healing from acute inflammatory bowels disease (diverticulitis) in S4, Example 1e; type: in vivo, human; settings: S4, 1000 mg 1-2 times a day, before DGA
Text: In Example 1e the resolution of gastrointestinal tract infection in another subject 4 (S4) has been shown. Like in S1 also in S4 the HO-1 pathway is clearly activated by the DGA Activation. This is indirectly shown by the clear reduction of blood bilirubin in Table 1e. […] During last few years these seldom but acute inflammations in the gastrointestinal tract have been mostly in the colon and caused by inflammation in Colonic diverticula. […] The only functioning therapy for inflammatory bowels disease has been the administration of strong intravenous antibiotics.
Like other tests with unhealthy humans also this test was done because there were no other efficient substances available. When symptoms of increased bowels inflammation/diverticulosis started S4 was on holiday abroad with very difficult access to any specialized doctor not to mention any hospital. […] Simultaneously with inflammatory symptoms and maybe partially enhancing them S4 experienced constipation.
By Saturday night on the 4th day of gradually increasing acute inflammation in the colon, S4 decided to test whether DGA Activation in combination with paracetamol would assist in resolving this already rather serious inflammation. There were no other available options at that moment. This decision was also supported by confidential information received on positive results with S1 (Examples 1b and 1c).
Saturday night at 0737 pm first 260 mg of D-glyceric acid calcium salt mixed into water was taken with 2×500 mg of paracetamol. Another additional 260 mg dose of DGAcs mixed into water was taken the same night at 1020 pm. Altogether the starting dose was 9 mg/kg i.e. relatively high. High initial dose was chosen because of high level of inflammation.

[2] = test system: seasonal flu or similar infectious disease; type: in vivo, human; settings: S1, 2 or 3 times 1×500 mg during work days, before DGA

## CC(=O)Nc1ccc(O)cc1 [paracetamol, reference compound]
[1]
  effect on pains and symptoms: helped to relief pains for 2-3 days but the symptoms got worse
[2]
  effect on general symptoms and fever: temporary relief but no cure
